Drawing on patent US8735414B2 (priority 2009, dated 2014), this text covers IC50 and melting point for 27 compounds.

What is called IC50 is the concentration needed to halve the response being measured. What is called melting point is the temperature, or range, at which the solid turns liquid.

The subject of data set [1] is bicistronic HCV replicon (replicon RNA, GenBank Accession No. AJ242654). Nature of the data set: HCV Replicon Assay. The following applies: Hepatitis C virus, 72 h, read-out: Replicon IC50. The format is cell-based. (In antiviral work, replicon cells carry a viral genome segment that copies itself.)

Some results are limits rather than exact numbers.

Regarding `N#Cc1c(-c2ccc(S(=O)(=O)NC(CF)CF)cn2)n(C2CCC2)c2cc(C(F)F)ccc12` [compound 331, 6-[3-cyano-1-cyclobutyl-6-(difluoromethyl)-1H-indol-2-yl]-N-(1,3-difluoropropan-2-yl)pyridine-3-sulfonamide], the melting point was in the range of 217 to 222 °C. The IC50 in data set [1] was less than 500 nM.

Compound `Cc1ccc2c(c1)c(C#N)c(-c1ncc(S(=O)(=O)NC(CF)CF)cn1)n2C1CCCCC1` [compound 198, 2-(3-cyano-1-cyclohexyl-5-methyl-1H-indol-2-yl)-N-(1,3-difluoropropan-2-yl)pyrimidine-5-sulfonamide] displayed a melting point of 211 to 215 °C. Also, the IC50 in data set [1] was 500 to 2000 nM.

In turn, `C[C@H](NS(=O)(=O)c1cnc(-c2c(C#N)c3ccc(OC(F)F)cc3n2-c2ccccc2)nc1)C(F)(F)F` [compound 611, 2-[3-cyano-6-(difluoromethoxy)-1-phenyl-1H-indol-2-yl]-N-[(2S)-1,1,1-trifluoropropan-2-yl]pyrimidine-5-sulfonamide] displayed a melting point of 216 to 218 °C. Besides, the IC50 in data set [1] was less than 500 nM.

`Cc1cc2c(cc1O)c(C#N)c(-c1ccc(S(=O)(=O)N[C@H](C)C(F)(F)F)cn1)n2C1CCC1` [compound 807, 6-(3-cyano-1-cyclobutyl-5-hydroxy-6-methyl-1H-indol-2-yl)-N-[(2R)-1,1,1-trifluoropropan-2-yl]pyridine-3-sulfonamide] had a melting point of 209 to 210 °C. In addition, the IC50 in data set [1] was less than 500 nM.

Compound `Cc1ccc2c(c1)c(C#N)c(-c1ncc(S(=O)(=O)NC(C)C)cn1)n2C(C)C` [compound 565, 2-[3-cyano-5-methyl-1-(propan-2-yl)-1H-indol-2-yl]-N-(propan-2-yl)pyrimidine-5-sulfonamide] registered a melting point of 175 to 177 °C. Also, the IC50 in data set [1] is less than 500 nM.

The compound `N#Cc1c(-c2ccc(S(=O)(=O)NC(CF)CF)cn2)n(C2CCCCC2)c2cc(OC(F)F)ccc12` [compound 100, 6-[3-cyano-1-cyclohexyl-6-(difluoromethoxy)-1H-indol-2-yl]-N-(1,3-difluoropropan-2-yl)pyridine-3-sulfonamide] showed a melting point of 175 to 178 °C. Besides, the IC50 in data set [1] was less than 500 nM.

For `C[C@H](NS(=O)(=O)c1cnc(-c2c(C#N)c3ccc(CC(F)F)cc3n2C2CCC2)nc1)C(F)(F)F` [compound 385, 2-[3-cyano-1-cyclobutyl-6-(2,2-difluoroethyl)-1H-indol-2-yl]-N-[(2S)-1,1,1-trifluoropropan-2-yl]pyrimidine-5-sulfonamide], the melting point is 216 to 218 °C. Further, in data set [1], the IC50 is less than 500 nM.

`CCc1ccc2c(C#N)c(-c3ccc(S(=O)(=O)N[C@@H](C)C4CC4)cn3)n(C3CCCC3)c2c1` [compound 312, 6-(3-cyano-1-cyclopentyl-6-ethyl-1H-indol-2-yl)-N-[(1S)-1-cyclopropylethyl]pyridine-3-sulfonamide] showed a melting point of 147.5 to 148.5 °C. Further, in data set [1], the 50% inhibitory concentration (IC50) was in the range of 500 to 2000 nM.

Take `Cc1ccc2c(c1)c(C#N)c(-c1ccc(S(=O)(=O)NC(C)(C)C(F)(F)F)cn1)n2C1CCCC1` [compound 607, 6-(3-cyano-1-cyclopentyl-5-methyl-1H-indol-2-yl)-N-(1,1,1-trifluoro-2-methylpropan-2-yl)pyridine-3-sulfonamide]: the melting point is 176 to 181 °C. Further, the concentration for half-maximal inhibition (IC50) in data set [1] is less than 500 nM.

`N#Cc1c(-c2ccc(S(N)(=O)=O)cn2)n(C2CCC2)c2cc(OC(F)F)c(F)cc12` [compound 722, 6-[3-cyano-1-cyclobutyl-6-(difluoromethoxy)-5-fluoro-1H-indol-2-yl]pyridine-3-sulfonamide]: the melting point fell in the range of 172 to 175 °C. Further, in data set [1], the IC50 was less than 500 nM.

Compound `Cc1ccc2c(C#N)c(-c3ncc(S(=O)(=O)N[C@@H](C)C4CC4)cn3)n(CC3CC3)c2c1` [compound 203, 2-[3-cyano-1-(cyclopropylmethyl)-6-methyl-1H-indol-2-yl]-N-[(1S)-1-cyclopropylethyl]pyrimidine-5-sulfonamide] had a melting point of 205 to 207 °C. Further, the 50% inhibitory concentration (IC50) in data set [1] is less than 500 nM.

Take `N#Cc1c(-c2ncc(S(=O)(=O)NC(CF)CF)cn2)n(C2CCC2)c2cc(OC(F)F)ccc12` [compound 129, 2-[3-cyano-1-cyclobutyl-6-(difluoromethoxy)-1H-indol-2-yl]-N-(1,3-difluoropropan-2-yl)pyrimidine-5-sulfonamide]: the melting point fell in the range of 205 to 207 °C. The IC50 in data set [1] is less than 500 nM.

Consider `Cc1cc(F)c2c(C#N)c(-c3ccc(S(=O)(=O)N[C@@H](C)C(F)(F)F)cn3)n(C3CCCC3)c2c1` [compound 625, 6-(3-cyano-1-cyclopentyl-4-fluoro-6-methyl-1H-indol-2-yl)-N-[(2S)-1,1,1-trifluoropropan-2-yl]pyridine-3-sulfonamide], for which the melting point is 207 to 211 °C. For the same compound, in data set [1], the IC50 is less than 500 nM.

`Cc1cc2c(cc1F)c(C#N)c(-c1ccc(S(=O)(=O)NC(C)(C)C)cn1)n2C1CCC1` [compound 651, N-tert-butyl-6-(3-cyano-1-cyclobutyl-5-fluoro-6-methyl-1H-indol-2-yl)pyridine-3-sulfonamide] yielded a melting point of 223 to 228 °C. In data set [1], the IC50 was less than 500 nM.

The compound `C[C@@H](NS(=O)(=O)c1ccc(-c2c(C#N)c3ccc(OC(F)F)cc3n2-c2ccc(F)cc2)nc1)C(F)(F)F` [compound 649, 6-[3-cyano-6-(difluoromethoxy)-1-(4-fluorophenyl)-1H-indol-2-yl]-N-[(2R)-1,1,1-trifluoropropan-2-yl]pyridine-3-sulfonamide] returned a melting point of 199 to 203 °C. Further, the concentration for half-maximal inhibition (IC50) in data set [1] was less than 500 nM.

In the case of `C[C@@H](NS(=O)(=O)c1ccc(-c2c(C#N)c3ccc(C4CCC4)cc3n2C2CCCC2)nc1)C(F)(F)F` [compound 343, 6-(3-cyano-6-cyclobutyl-1-cyclopentyl-1H-indol-2-yl)-N-[(2R)-1,1,1-trifluoropropan-2-yl]pyridine-3-sulfonamide], the melting point lay within 176 to 178 °C. In addition, in data set [1], the IC50 lay within 2000 to 5000 nM.

Compound `CCc1cc(F)c2c(C(N)=O)c(-c3ccc(NS(=O)(=O)C(C)(C)C)cn3)n(C3CCC3)c2c1` [compound 1110, 2-{5-[(tert-butylsulfonyl)amino]pyridin-2-yl}-1-cyclobutyl-6-ethyl-4-fluoro-1H-indole-3-carboxamide] came in with a melting point of 259 to 263 °C. Moreover, the IC50 in data set [1] is less than 500 nM.

As for `N#Cc1c(-c2ccc(S(=O)(=O)NC3CC(F)(F)C3)cn2)n(C2CCC2)c2cc(C3CC3)ccc12` [compound 247, 6-(3-cyano-1-cyclobutyl-6-cyclopropyl-1H-indol-2-yl)-N-(3,3-difluorocyclobutyl)pyridine-3-sulfonamide], the melting point is 176 to 178 °C. In addition, in data set [1], the IC50 was 500 to 2000 nM.

Turning to `Cc1cc2c(cc1F)c(C(N)=O)c(-c1ccc(S(=O)(=O)N[C@@H](C)C(F)(F)F)cn1)n2C1CCOCC1` [compound 769, 5-fluoro-6-methyl-1-(tetrahydro-2H-pyran-4-yl)-2-(5-{[(2S)-1,1,1-trifluoropropan-2-yl]sulfamoyl}pyridin-2-yl)-1H-indole-3-carboxamide], the melting point was 261 to 264 °C. For the same compound, the IC50 in data set [1] was less than 500 nM.

On to `COc1cc2c(C(N)=O)c(-c3ccc(S(=O)(=O)N[C@H](C)C(F)(F)F)cn3)n(C3CCCC3)c2cc1C` [compound 834, 1-cyclopentyl-5-methoxy-6-methyl-2-(5-{[(2R)-1,1,1-trifluoropropan-2-yl]sulfamoyl}pyridin-2-yl)-1H-indole-3-carboxamide], for which the melting point fell in the range of 273 to 275 °C. The IC50 in data set [1] lay in the range of 2000 to 5000 nM.

Compound `CC(C)Oc1ccc2c(C#N)c(-c3ccc(NS(C)(=O)=O)nn3)n(C3CCC3)c2c1` [compound 275, N-{6-[3-cyano-1-cyclobutyl-6-(propan-2-yloxy)-1H-indol-2-yl]pyridazin-3-yl}methanesulfonamide] yielded a melting point of 225 to 227 °C. Further, the half-maximal inhibitory concentration (IC50) in data set [1] is 2000 to 5000 nM.

Turning to `Cc1ccc2c(c1)c(C#N)c(-c1ccc(S(=O)(=O)NC(C)(C)C(F)(F)F)cn1)n2C1CCC1` [compound 480, 6-(3-cyano-1-cyclobutyl-5-methyl-1H-indol-2-yl)-N-(1,1,1-trifluoro-2-methylpropan-2-yl)pyridine-3-sulfonamide], the melting point lay within 182 to 187 °C. Further, the IC50 in data set [1] was less than 500 nM.

In turn, `C[C@H](NS(=O)(=O)c1ccc(-c2c(C#N)c3ccc(C(F)F)cc3n2C2CCC2)nc1)C(F)(F)F` [compound 363, 6-[3-cyano-1-cyclobutyl-6-(difluoromethyl)-1H-indol-2-yl]-N-[(2S)-1,1,1-trifluoropropan-2-yl]pyridine-3-sulfonamide] had a melting point of 198 to 207 °C. Also, in data set [1], the IC50 is less than 500 nM.

In the case of `C[C@H](NS(=O)(=O)c1cnc(-c2c(C#N)c3ccc(F)cc3n2C2CCCCC2)nc1)C1CC1` [compound 499, 2-(3-cyano-1-cyclohexyl-6-fluoro-1H-indol-2-yl)-N-[(1S)-1-cyclopropylethyl]pyrimidine-5-sulfonamide], the melting point lay in the range of 169 to 170 °C. Further, in data set [1], the IC50 was less than 500 nM.

For the compound `CC(C)NS(=O)(=O)c1cnc(-c2c(C(N)=O)c3ccc(OC(F)(F)F)cc3n2C2CCCC2)nc1` [compound 782, 1-cyclopentyl-2-[5-(propan-2-ylsulfamoyl)pyrimidin-2-yl]-6-(trifluoromethoxy)-1H-indole-3-carboxamide], the melting point lay within 238 to 241 °C. For the same compound, in data set [1], the concentration for half-maximal inhibition (IC50) is less than 500 nM.

For `CCc1cc2c(cc1F)c(C#N)c(-c1ccc(S(=O)(=O)N[C@@H](C)C(F)(F)F)cn1)n2-c1ccc(F)cc1` [compound 1002, 6-[3-cyano-6-ethyl-5-fluoro-1-(4-fluorophenyl)-1H-indol-2-yl]-N-[(2S)-1,1,1-trifluoropropan-2-yl]pyridine-3-sulfonamide], the melting point lay within 236 to 243 °C. Besides, in data set [1], the IC50 is less than 500 nM.

In turn, `CCc1cc2c(cc1F)c(C#N)c(-c1ccc(S(=O)(=O)N[C@@H](C)C(F)(F)F)cn1)n2-c1ccncc1` [compound 974, 6-[3-cyano-6-ethyl-5-fluoro-1-(pyridin-4-yl)-1H-indol-2-yl]-N-[(2S)-1,1,1-trifluoropropan-2-yl]pyridine-3-sulfonamide] returned a melting point of 209 to 215 °C. In data set [1], the IC50 was less than 500 nM.
